# According to patent US9376420B2 (YUHAN CORPORATION, priority 2012, dated 2016):
# pEC50: −log10 of the molar value.
# Target: T1, human LXRβ (Homo sapiens, UniProt P55055)
# T1 construct: expressed in transfected cells; host or cells: HEK293 cells (ATCC CRL-1573), transient transfection with pFA-hLXRβ/GAL4 and pUAS
# T1 sequence (P55055 222-460 limits assumed): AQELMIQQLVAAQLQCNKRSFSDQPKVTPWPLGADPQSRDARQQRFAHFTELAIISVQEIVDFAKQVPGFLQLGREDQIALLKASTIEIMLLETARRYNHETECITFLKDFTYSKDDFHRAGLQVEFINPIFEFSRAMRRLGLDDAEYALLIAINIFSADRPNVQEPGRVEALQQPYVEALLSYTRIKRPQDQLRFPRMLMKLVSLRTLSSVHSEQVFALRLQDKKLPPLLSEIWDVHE
# Test: Assay for Transcriptional Activity of LXRβ (GAL4-hLXRβ LBD luciferase reporter, transient transfection)
# Assay type: cell-based
# Conditions: HEK293 cells transfected with pFA-hLXRβ/GAL4 and pUAS, 24 hours; for Emax: fold value in comparison with the control (DMSO-treated group); for pEC50: increase of transcriptional activity of LXRβ, average of three independent tests
# How it was run: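 EC50 values, averaged over three independent runs, come from a four-parameter fit of 9-point half-log curves spanning 0.01–50 μM. Luciferase output was read in lysed HEK293 cells 24 h after dosing at 37 °C, following transient transfection with a GAL4-human LXRβ LBD fusion plus GAL4-responsive reporter.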
SMILES,Emax [fold],pEC50
"CN(C)S(=O)(=O)N1CC=C(c2ccc(C3CC(C(O)(C(F)(F)F)C(F)(F)F)=NN3c3ccc(F)cc3F)cc2)CC1 (centres unmarked) [Example 401, 1-(2,4-difluoro-phenyl)-5-[4-(1-dimethylsulfamoyl-1,2,3,6-tetrahydropyridin-4-yl)-phenyl]-3-[di-(trifluoromethyl)-hydroxy-methyl]-4,5-dihydro-1H-pyrazole]",45,6.11
"CC(C)C(=O)N1CC=C(c2ccc(C3CC(C(O)(C(F)(F)F)C(F)(F)F)=NN3c3ccc(F)cc3F)cc2)CC1 (centres unmarked) [Example 402, 1-(2,4-difluoro-phenyl)-5-[4-(1-isobutyryl-1,2,3,6-tetrahydropyridin-4-yl)-phenyl]-3-[di-(trifluoromethyl)-hydroxy-methyl]-4,5-dihydro-1H-pyrazole]",23,5.99
"CN(C)C(=O)N1CC=C(c2ccc(C3CC(C(O)(C(F)(F)F)C(F)(F)F)=NN3c3ccc(F)cc3F)cc2)CC1 (centres unmarked) [Example 403, 1-(2,4-difluoro-phenyl)-5-[4-(1-dimethylcarbamoyl-1,2,3,6-tetrahydropyridin-4-yl)-phenyl]-3-[di-(trifluoromethyl)-hydroxy-methyl]-4,5-dihydro-1H-pyrazole]",22,5.93
"CC(C)(C)OC(=O)N1CCN(c2ccc(C3CC(C(O)(C(F)(F)F)C(F)(F)F)=NN3c3ccc(F)cc3F)cc2)CC1 (centres unmarked) [Example 404, 1-(2,4-difluoro-phenyl)-5-[4-(4-BOC-piperazin-1-yl)-phenyl]-3-[di-(trifluoromethyl)-hydroxy-methyl]-4,5-dihydro-1H-pyrazole]",15,5.28
"CS(=O)(=O)N1CCN(c2ccc(C3CC(C(O)(C(F)(F)F)C(F)(F)F)=NN3c3ccc(F)cc3F)cc2)CC1 (centres unmarked) [Example 406, 1-(2,4-difluoro-phenyl)-5-[4-(4-methanesulfonyl-piperazin-1-yl)-phenyl]-3-[di-(trifluoromethyl)-hydroxy-methyl]-4,5-dihydro-1H-pyrazole]",53,6.02
"CN(C)S(=O)(=O)N1CCN(c2ccc(C3CC(C(O)(C(F)(F)F)C(F)(F)F)=NN3c3ccc(F)cc3F)cc2)CC1 (centres unmarked) [Example 407, 1-(2,4-difluoro-phenyl)-5-[4-(4-dimethylsulfamoyl-piperazin-1-yl)-phenyl]-3-[di-(trifluoromethyl)-hydroxy-methyl]-4,5-dihydro-1H-pyrazole]",58,6.14
"CS(=O)(=O)N1CCCN(c2ccc(C3CC(C(O)(C(F)(F)F)C(F)(F)F)=NN3c3ccc(F)cc3F)cc2)CC1 (centres unmarked) [Example 410, 1-(2,4-difluoro-phenyl)-5-[4-(4-methanesulfonyl-homopiperazin-1-yl)-phenyl]-3-[di-(trifluoromethyl)-hydroxy-methyl]-4,5-dihydro-1H-pyrazole]",74,6.81
"CN(C)S(=O)(=O)N1CCCN(c2ccc(C3CC(C(O)(C(F)(F)F)C(F)(F)F)=NN3c3ccc(F)cc3F)cc2)CC1 (centres unmarked) [Example 411, 1-(2,4-difluoro-phenyl)-5-[4-(4-dimethylsulfamoyl-homopiperazin-1-yl)-phenyl]-3-[di-(trifluoromethyl)-hydroxy-methyl]-4,5-dihydro-1H-pyrazole]",62,6.34
"CNCCCS(=O)(=O)c1cccc(-c2ccc(C3CC(C(O)(C(F)(F)F)C(F)(F)F)=NN3c3ccc(F)cc3F)cc2)c1 (centres unmarked) [Example 412, 1-(2,4-difluoro-phenyl)-5-{3′-[3-(methyl-amino)-propane-1-sulfonyl]-biphenyl-4-yl}-3-[di-(trifluoromethyl)-hydroxy-methyl]-4,5-dihydro-1H-pyrazole]",53,6.14
"CS(=O)(=O)c1cccc(-c2ccc(C3CC(C(O)(C(F)(F)F)C(F)(F)F)=NN3c3ccc(F)cc3F)cc2)c1 (centres unmarked) [Example 413, 1-(2,4-difluoro-phenyl)-5-[3′-methanesulfonyl-biphenyl-4-yl]-3-[di-(trifluoromethyl)-hydroxy-methyl]-4,5-dihydro-1H-pyrazole]",49,6.81
"CSc1cccc(-c2ccc(C3CC(C(O)(C(F)(F)F)C(F)(F)F)=NN3c3ccccc3Cl)s2)c1 (centres unmarked) [Example 414, 1-(2-chloro-phenyl)-5-{5-[3-(methylsulfanyl)-phenyl]-thiophen-2-yl}-3-[di-(trifluoromethyl)-hydroxy-methyl]-4,5-dihydro-1H-pyrazole]",125,6.71
"CSc1ccc(-c2ccc(C3CC(C(O)(C(F)(F)F)C(F)(F)F)=NN3c3ccccc3Cl)s2)cn1 (centres unmarked) [Example 415, 1-(2-chloro-phenyl)-5-{5-[6-(methylsulfanyl)-pyridin-3-yl]-thiophen-2-yl}-3-[di-(trifluoromethyl)-hydroxy-methyl]-4,5-dihydro-1H-pyrazole]",100,6.46
"CC(C)(C)OC(=O)N1CC=C(c2ccc(C3CC(C(O)(C(F)(F)F)C(F)(F)F)=NN3c3ccccc3Cl)s2)CC1 (centres unmarked) [Example 416, 1-(2-chloro-phenyl)-5-[5-(1-BOC-1,2,3,6-tetrahydropyridin-4-yl)-thiophen-2-yl]-3-[di-(trifluoromethyl)-hydroxy-methyl]-4,5-dihydro-1H-pyrazole]",90,5.95
"Cl.OC(C1=NN(c2ccccc2Cl)C(c2ccc(C3=CCNCC3)s2)C1)(C(F)(F)F)C(F)(F)F (centres unmarked) [Example 417, 1-(2-chloro-phenyl)-5-[5-(1,2,3,6-tetrahydropyridin-4-yl)-thiophen-2-yl]-3-[di-(trifluoromethyl)-hydroxy-methyl]-4,5-dihydro-1H-pyrazole hydrochloride]",58,5.99
"CS(=O)(=O)N1CC=C(c2ccc(C3CC(C(O)(C(F)(F)F)C(F)(F)F)=NN3c3ccccc3Cl)s2)CC1 (centres unmarked) [Example 418, 1-(2-chloro-phenyl)-5-[5-(1-methanesulfonyl-1,2,3,6-tetra hydropyridin-4-yl)-thiophen-2-yl]-3-[di-(trifluoromethyl)-hydroxy-methyl]-4,5-dihydro-1H-pyrazole]",106,6.43
"CS(=O)(=O)c1cccc(-c2ccc(C3CC(C(O)(C(F)(F)F)C(F)(F)F)=NN3c3ccccc3Cl)s2)c1 (centres unmarked) [Example 419, 1-(2-chloro-phenyl)-5-{5-[3-(methylsulfonyl)-phenyl]-thiophen-2-yl}-3-[di-(trifluoromethyl)-hydroxy-methyl]-4,5-dihydro-1H-pyrazole]",82,
"CS(=O)(=O)c1ccc(-c2ccc(C3CC(C(O)(C(F)(F)F)C(F)(F)F)=NN3c3ccccc3Cl)s2)cn1 (centres unmarked) [Example 420, 1-(2-chloro-phenyl)-5-{5-[6-(methylsulfonyl)-pyridin-3-yl]-thiophen-2-yl}-3-[di-(trifluoromethyl)-hydroxy-methyl]-4,5-dihydro-1H-pyrazole]",80,
"CSc1cccc(-c2cccc(N3N=C(C(O)(C(F)(F)F)C(F)(F)F)CC3c3ccccc3Cl)c2)c1 (centres unmarked) [Example 431, 5-(2-chloro-phenyl)-1-[3′-(methylsulfanyl)-biphenyl-3-yl]-3-[di-(trifluoromethyl)-hydroxy-methyl]-4,5-dihydro-1H-pyrazole]",17,5.65
"CC(C)(C)OC(=O)N1CC=C(c2cccc(N3N=C(C(O)(C(F)(F)F)C(F)(F)F)CC3c3ccccc3Cl)c2)CC1 (centres unmarked) [Example 433, 5-(2-chloro-phenyl)-1-[3-(1-BOC-1,2,3,6-tetrahydropyridin-4-yl)-phenyl]-3-[di-(trifluoromethyl)-hydroxy-methyl]-4,5-dihydro-1H-pyrazole]",13,5.18
"CS(=O)(=O)c1cccc(-c2cccc(N3N=C(C(O)(C(F)(F)F)C(F)(F)F)CC3c3ccccc3Cl)c2)c1 (centres unmarked) [Example 434, 5-(2-chloro-phenyl)-1-[3′-(methylsulfonyl)-biphenyl-3-yl]-3-[di-(trifluoromethyl)-hydroxy-methyl]-4,5-dihydro-1H-pyrazole]",30,6.45
"CS(=O)(=O)c1ccc(-c2cccc(N3N=C(C(O)(C(F)(F)F)C(F)(F)F)CC3c3ccccc3Cl)c2)cn1 (centres unmarked) [Example 435, 5-(2-chloro-phenyl)-1-{3-[6-(methylsulfonyl)-pyridin-3-yl]-phenyl}-3-[di-(trifluoromethyl)-hydroxy-methyl]-4,5-dihydro-1H-pyrazole]",25,6.02
"CS(=O)(=O)N1CC=C(c2cccc(N3N=C(C(O)(C(F)(F)F)C(F)(F)F)CC3c3ccccc3Cl)c2)CC1 (centres unmarked) [Example 437, 5-(2-chloro-phenyl)-1-[3-(1-methylsulfonyl-1,2,3,6-tetrahydropyridin-4-yl)-phenyl]-3-[di-(trifluoromethyl)-hydroxy-methyl]-4,5-dihydro-1H-pyrazole]",13,6.03
"O=S(=O)(C1CC1)N1CC=C(c2cccc(N3N=C(C(O)(C(F)(F)F)C(F)(F)F)CC3c3ccccc3Cl)c2)CC1 (centres unmarked) [Example 438, 5-(2-chloro-phenyl)-1-[3-(1-cyclopropanesulfonyl-1,2,3,6-tetrahydropyridin-4-yl)-phenyl]-3-[di-(trifluoromethyl)-hydroxy-methyl]-4,5-dihydro-1H-pyrazole]",6,5.71
